Earlier results as cited in US7956061B2, “Bicyclic pyrimidines as dipeptidyl peptidase-IV inhibitors for the treatment or prevention of diabetes” (Merck Sharp & Dohme Corp., priority 2005, dated 2011).
Values belong to the molecule of their own block, whether it stands above or below them.

What was measured:
[1] = test system: cardiac allograft; conditions: rats; Transplantation, 63: 1495-1500 (1997)
[2] = test system: hematopoiesis; conditions: mouse, cyclophosphamide-induced neutropenia; WO 99/56753
[3] = target: T1, DPP-IV (Homo sapiens, UniProt P27487); conditions: plasma
T1 construct: GRF is rapidly degraded in plasma to GRF[3-44]
T1 sequence (P27487 39-766 limits assumed, species assumed): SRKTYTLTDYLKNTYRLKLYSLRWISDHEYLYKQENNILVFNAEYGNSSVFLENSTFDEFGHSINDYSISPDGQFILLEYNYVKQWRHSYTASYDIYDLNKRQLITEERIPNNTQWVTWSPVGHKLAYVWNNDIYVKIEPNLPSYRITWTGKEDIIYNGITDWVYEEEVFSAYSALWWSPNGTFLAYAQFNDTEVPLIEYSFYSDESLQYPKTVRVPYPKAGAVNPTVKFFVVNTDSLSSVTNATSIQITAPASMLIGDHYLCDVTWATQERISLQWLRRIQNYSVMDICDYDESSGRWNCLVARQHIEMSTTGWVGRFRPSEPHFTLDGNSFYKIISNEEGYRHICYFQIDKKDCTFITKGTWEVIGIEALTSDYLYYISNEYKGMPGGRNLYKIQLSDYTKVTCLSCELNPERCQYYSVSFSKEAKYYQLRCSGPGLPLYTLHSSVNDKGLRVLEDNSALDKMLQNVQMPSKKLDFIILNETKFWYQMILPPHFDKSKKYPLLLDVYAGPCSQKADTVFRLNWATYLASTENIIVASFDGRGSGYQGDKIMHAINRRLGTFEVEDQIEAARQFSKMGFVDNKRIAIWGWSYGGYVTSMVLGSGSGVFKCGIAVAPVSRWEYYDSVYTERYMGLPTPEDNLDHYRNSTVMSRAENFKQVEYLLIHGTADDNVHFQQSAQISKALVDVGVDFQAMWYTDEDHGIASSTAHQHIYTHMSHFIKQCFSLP

Molecule: CC(C)N1CCC(c2ccccc2)(c2ccccc2)CC1 [Prodipine, Pro-Pro-diphenyl-phosphonate]
cardiac allograft survival [1]: double cardiac allograft survival in rats from day 7 to day 14

Molecule: CC(C)[C@H](N)C(=O)N1CCC[C@H]1B(O)O [Val-Boro-Pro]
effect on hematopoiesis [2]: stimulated hematopoiesis

effect on degradation of GRF to GRF[3-44] [3]: prevented
Molecule: diprotin A
